Laboratory results reported in ChEMBL document CHEMBL1125546, “Novel 5-HT3 antagonists. Isoquinolinones and 3-aryl-2-pyridones” (J Med Chem, 1992).

Assays:
[1] = tested on: Rattus norvegicus; experiment: Inhibitory activity against Bezold-jarisch functional assay, inducing a transient bradycardia upon intravenous administration of 5-hydroxytryptamine-(10 ug/kg) in anesthetized rats.; details: read-out: ID50 (the source's name)
[2] = tested on: Canis familiaris; experiment: Compound was evaluated for protection against cisplatin-induced emesis by measuring number of retches in dogs administered intravenously at 0.3 mg/kg.; format: functional, Canis lupus familiaris; details: route intravenous
[3] = Compound was evaluated for protection against cisplatin-induced emesis by measuring number of retches in ferrets administered perorally at 1.0 mg/kg.; format: functional, Mustela putorius furo; details: route oral
[4] = tested on: Canis familiaris; experiment: Compound was evaluated for protection against cisplatin-induced emesis by measuring number of retches in dogs administered perorally at 0.1 mg/kg.; format: functional, Canis lupus familiaris; details: route oral
[5] = tested on: Canis familiaris; experiment: Compound was evaluated for number of retches in dogs administered perorally at 0.3 mg/kg.; format: functional, Canis lupus familiaris; details: route oral
[6] = Compound was evaluated for protection against cisplatin-induced emesis by measuring number of retches in ferrets administered intravenously at 0.01 mg/kg.; format: functional, Mustela putorius furo; details: route intravenous
[7] = Compound was evaluated for protection against cisplatin-induced emesis by measuring number of retches in ferrets administered perorally at 0.1 mg/kg.; format: functional, Mustela putorius furo; details: route oral
[8] = Compound was evaluated for protection against cisplatin-induced emesis by measuring number of emetic episodes in ferrets administered perorally at 1.0 mg/kg.; format: functional, Mustela putorius furo; details: route oral
[9] = tested on: Canis familiaris; experiment: Compound was evaluated for protection against cisplatin-induced emesis by measuring number of retches in dogs administered intravenously at 0.1 mg/kg.; format: functional, Canis lupus familiaris; details: route intravenous
[10] = tested on: Canis familiaris; experiment: Compound was evaluated for protection against cisplatin-induced emesis by measuring number of retches in dogs administered intravenously at 0.03 mg/kg.; format: functional, Canis lupus familiaris; details: route intravenous
[11] = tested on: Canis familiaris; experiment: Compound was evaluated for protection against cisplatin-induced emesis by measuring number of emetic episodes in dogs administered intravenously at 0.03 mg/kg.; format: functional, Canis lupus familiaris; details: route intravenous
[12] = tested on: Canis familiaris; experiment: Compound was evaluated for protection against cisplatin-induced emesis by measuring number of retches in dogs administered perorally at 1.0 mg/kg.; format: functional, Canis lupus familiaris; details: route oral
[13] = Compound was evaluated for protection against cisplatin-induced emesis by measuring number of retches in ferrets administered perorally at 0.3 mg/kg.; format: functional, Mustela putorius furo; details: route oral
[14] = Compound was evaluated for protection against cisplatin-induced emesis by measuring number of retches in ferrets administered intravenously at 0.03 mg/kg.; format: functional, Mustela putorius furo; details: route intravenous
[15] = Compound was evaluated for protection against cisplatin-induced emesis by measuring number of emetic episodes in ferrets administered intravenously at 0.3 mg/kg.; format: functional, Mustela putorius furo; details: route intravenous
[16] = Compound was evaluated for protection against cisplatin-induced emesis by measuring number of retches in ferrets administered intravenously at 0.3 mg/kg.; format: functional, Mustela putorius furo; details: route intravenous
[17] = tested on: Canis familiaris; experiment: Compound was evaluated for protection against cisplatin-induced emesis by measuring number of emetic episodes in dogs administered perorally at 1.0 mg/kg.; format: functional, Canis lupus familiaris; details: route oral
[18] = tested on: Canis familiaris; experiment: Compound was evaluated for protection against cisplatin-induced emesis by measuring number of emetic episodes in dogs administered perorally at 0.1 mg/kg.; format: functional, Canis lupus familiaris; details: route oral
[19] = tested on: Canis familiaris; experiment: Compound was evaluated for protection against cisplatin-induced emesis by measuring number of emetic episodes in dogs administered intravenously at 0.3 mg/kg.; format: functional, Canis lupus familiaris; details: route intravenous
[20] = Compound was evaluated for number of emetic episodes in ferrets administered intravenously at 0.01 mg/kg.; format: functional, Mustela putorius furo; details: route intravenous
[21] = Compound was evaluated for protection against cisplatin-induced emesis by measuring number of retches in ferrets administered intravenously at 0.1 mg/kg.; format: functional, Mustela putorius furo; details: route intravenous
[22] = Compound was evaluated for protection against cisplatin-induced emesis by measuring number of emetic episodes in ferrets administered perorally at 0.1 mg/kg.; format: functional, Mustela putorius furo; details: route oral
[23] = Compound was evaluated for protection against cisplatin-induced emesis by measuring number of emetic episodes in ferrets administered intravenously at 0.03 mg/kg.; format: functional, Mustela putorius furo; details: route intravenous
[24] = tested on: Canis familiaris; experiment: Compound was evaluated for protection against cisplatin-induced emesis by measuring number of emetic episodes in dogs administered intravenously at 0.1 mg/kg.; format: functional, Canis lupus familiaris; details: route intravenous
[25] = tested on: Canis familiaris; experiment: Compound was evaluated for protection against cisplatin-induced emesis by measuring number of emetic episodes in dogs administered perorally at 0.3 mg/kg.; format: functional, Canis lupus familiaris; details: route oral
[26] = Compound was evaluated for protection against cisplatin-induced emesis by measuring number of emetic episodes in ferrets administered perorally at 0.3 mg/kg.; format: functional, Mustela putorius furo; details: route oral
[27] = Compound was evaluated for protection against cisplatin-induced emesis by measuring number of emetic episodes in ferrets administered intravenously at 0.1 mg/kg.; format: functional, Mustela putorius furo; details: route intravenous

With `Cc1[nH]cnc1Cn1ccc2c(N)cccc2c1=O` the ED50 [1] was > 100 µg/kg.

For `Cc1[nH]cnc1Cn1cccc(-c2cccn2C)c1=O`, the ED50 [1] was 43.3 µg/kg.

`COc1cc2ccccc2c2c(=O)n(Cc3[nH]cnc3C)ccc12` gave an ED50 [1] of 2.53 µg/kg.

For `Cc1[nH]cnc1Cn1ccc2cc(N)ccc2c1=O`, the ED50 [1] was 37.9 µg/kg.

For `Cc1[nH]cnc1Cn1ncc2ccccc2c1=O`, the ED50 [1] was > 100 µg/kg.

With `Cc1nc[nH]c1Cn1ccc2cc(C)c3ccccc3c2c1=O` the ED50 [1] was 0.82 µg/kg.

In the case of `Cc1nc[nH]c1Cn1ccc2c(=O)n(C)c3ccccc3c2c1=O`, the ED50 [1] is reported as 0.23 µg/kg.

`Cc1[nH]cnc1Cn1ccc2c(c1=O)-c1ccccc1CC2` showed an ED50 [1] of 0.46 µg/kg.

`Cc1ccc(-c2cccn(Cc3[nH]cnc3C)c2=O)o1` gave an ED50 [1] of 9.18 µg/kg.

Work on `Cc1[nH]cnc1Cn1cccc(-c2cccc(F)c2)c1=O` yielded an ED50 [1] of 29.9 µg/kg.

With `Cc1[nH]cnc1Cn1ccc2ccc3cccnc3c2c1=O` the ED50 [1] was 24.3 µg/kg.

In the case of `Cc1[nH]cnc1Cn1cccc(-c2ccoc2)c1=O`, the ED50 [1] is reported as 8.65 µg/kg.

`Cc1[nH]cnc1Cn1cccc(-c2ccccc2O)c1=O` showed an ED50 [1] of 40 µg/kg.

For `Cc1[nH]cnc1Cn1ccc2ccc3c(ccn3C)c2c1=O`, the ED50 [1] was 1.64 µg/kg.

Compound `Cc1[nH]cnc1Cn1cccc(-c2ccccn2)c1=O` has an ED50 [1] of 10.4 µg/kg.

Compound `Cc1[nH]cnc1Cn1cccc(-c2ccsc2)c1=O` has an ED50 [1] of 3.1 µg/kg.

Compound `Cc1ccc(-c2cccn(Cc3[nH]cnc3C)c2=O)s1` has an ED50 [1] of 3.62 µg/kg.

`Cc1nc[nH]c1Cn1ccc2c(C)cc3ccccc3c2c1=O` showed an ED50 [1] of 1.09 µg/kg.

Work on `Cc1[nH]cnc1Cn1ccc2cnc3ccccc3c2c1=O` yielded an ED50 [1] of 0.28 µg/kg.

Compound `Cc1[nH]cnc1Cn1ccc2ccc3ccccc3c2c1=O` has a No. of retches [2] of 42.4, a No. of retches [3] of 1 and a No. of retches [4] of 133.2. It also gave a No. of retches [5] of 27.8, a No. of retches [6] of 144.5 and a No. of retches [7] of 89.3. For the same compound, the “No. of emetic episodes” value [8] was 0, the No. of retches [9] was 53.8 and the No. of retches [10] was 143.8. The “No. of emetic episodes” value [11] was 10.2, the No. of retches [12] was 26.3 and the No. of retches [13] was 31.5. The No. of retches [14] was 79, the “No. of emetic episodes” value [15] was 0 and the No. of retches [16] was 11.8. For the same compound, the “No. of emetic episodes” value [17] was 1.8, the “No. of emetic episodes” value [18] was 10.8 and the “No. of emetic episodes” value [19] was 3.4. The “No. of emetic episodes” value [20] was 10.8, the No. of retches [21] was 65 and the “No. of emetic episodes” value [22] was 4.8. For the same compound, the “No. of emetic episodes” value [23] was 5, the “No. of emetic episodes” value [24] was 4.4 and the “No. of emetic episodes” value [25] was 4. The ED50 [1] was 0.3 µg/kg, the “No. of emetic episodes” value [26] was 1.3 and the “No. of emetic episodes” value [27] was 2.

For `Cc1[nH]cnc1Cn1ccc2ncc3ccccc3c2c1=O`, the ED50 [1] was 0.16 µg/kg.

Compound `Cc1[nH]cnc1Cn1ccc2c(Cl)cc(Cl)cc2c1=O` has an ED50 [1] of 34.6 µg/kg.

`Cc1[nH]cnc1Cn1ccc2ccc3ncccc3c2c1=O` gave an ED50 [1] of 2.86 µg/kg.

`Cc1[nH]cnc1Cn1ccc2cc(Br)c3ccccc3c2c1=O` showed an ED50 [1] of 6.21 µg/kg.

With `COc1ccc(-c2cccn(Cc3[nH]cnc3C)c2=O)cc1` the ED50 [1] was > 100 µg/kg.

In the case of `Cc1[nH]cnc1Cn1ccc2cc3c(cc2c1=O)OCCO3`, the ED50 [1] is reported as > 100 µg/kg.

With `Cc1[nH]cnc1Cn1ccc2c(CO)cc3ccccc3c2c1=O` the ED50 [1] was 0.68 µg/kg.
